Literature values in US10948221B1 (priority 2020, dated 2021).

Tested on: rat
Settings: in vivo

First: [Na+].[O-][Cl+3]([O-])([O-])[O-] [NaClO4]
Second: Na3PO4
The “LD50 (oral-rat; mg/kg)” value of the first is 3.5-fold lower: 2100 mg/kg for the first, 7400 mg/kg for the second.

Compared with `[Na+].[O-][Cl+2]([O-])[O-]` [NaClO3], `[K+].[O-][Cl+3]([O-])([O-])[O-]` [KClO4] is 12-fold lower in “LD50 (oral-rat; mg/kg)” value: 1200 mg/kg for the first, 100 mg/kg for the second.

First: KMnO4
Second: NH4NO3
The “LD50 (oral-rat; mg/kg)” value of the first is 2-fold lower: 1090 mg/kg for the first, 2217 mg/kg for the second.

Going from MgSO4•7H2O to `N#C[O-].[K+]` [KCNO], the “LD50 (oral-rat; mg/kg)” value falls from 2840 mg/kg to 841 mg/kg (3.4-fold).

Compared with `O=N[O-].[K+]` [KNO2], K2SO4 [Solute K2SO4] is 26-fold higher in “LD50 (oral-rat; mg/kg)” value: 250 mg/kg for the first, 6600 mg/kg for the second.

First: KIO3
Second: [F-].[Na+] [NaF]
The “LD50 (oral-rat; mg/kg)” value of the first is 2.6-fold higher: 136 mg/kg for the first, 52 mg/kg for the second.

First: BaCl2•2H2O
Second: CN.Cl [CH3NH3Cl]
The “LD50 (oral-rat; mg/kg)” value of the first is 14-fold lower: 118 mg/kg for the first, 1600 mg/kg for the second.

First: [K+].[O-][Cl+2]([O-])[O-] [KClO3]
Second: O=N[O-].[Na+] [NaNO2]
The “LD50 (oral-rat; mg/kg)” value of the first is 10-fold higher: 1870 mg/kg for the first, 180 mg/kg for the second.

In the case of AgNO3, the “LD50 (oral-rat; mg/kg)” value is given as “Toxic”.
In the case of `O=N[O-].[Ag+]` [AgNO2], the “LD50 (oral-rat; mg/kg)” value is given as “Toxic”.
